Reference: patent US12564547B2, “Compositions, formulations, and methods for skin treatment” (Oddity Labs, LLC, priority 2022, dated 2026)

Tested on: human dermal fibroblasts
Assay: Human dermal fibroblast cells (hDFC) proliferation, cell viability assay (CellTiter-Glo, manual cell counting); also: test concentration or dose not given here
Assay type: cell-based
Conditions: hDFCs proliferation; control is DMSO

SMILES	Activity (Percent Increase Proliferation of hFDPCs (%))
CCn1c(NN)nc2ccccc2c1=O [VII-24, 3-ethyl-2-hydrazinylquinazolin-4-one]	D (increased proliferation of hFDPCs equals to or larger than 8%)
CCOC(OCC)OCC [VII-6, diethoxymethoxyethane]	D (increased proliferation of hFDPCs equals to or larger than 8%)
NC1CSCC1O (stereo not drawn) [VII-3, 4-aminothiolan-3-ol]	D (increased proliferation of hFDPCs equals to or larger than 8%)
CN(C)CN(C)C [VII-11, N,N,N′,N′-tetramethylmethanediamine]	D (increased proliferation of hFDPCs equals to or larger than 8%)
CCNC(=O)CCSc1nc(C)cc(C)n1 [VII-19, 3-(4,6-dimethylpyrimidin-2-yl)sulfanyl-N-ethylpropanamide]	C (increased proliferation of hFDPCs equals to or larger than 4% and less than 8%)
CN1CCCNS1(=O)=O [VII-9, 2-methyl-1,2,6-thiadiazinane 1,1-dioxide]	D (increased proliferation of hFDPCs equals to or larger than 8%)
COCCOCCCn1c(=O)[nH]c2ccccc2c1=O [V-5, 3-[3-(2-methoxyethoxy)propyl]-1H-quinazoline-2,4-dione]	D (increased proliferation of hFDPCs equals to or larger than 8%)
O=C(O)CNC(=O)c1ccc2[nH]c3c(c2c1)CCCC3 [IV-6, 2-(6,7,8,9-tetrahydro-5H-carbazole-3-carbonylamino)acetic acid]	B (increased proliferation of hFDPCs equals to or larger than 1% and less than 4%)
NC(=O)C1CCCCC1NC(=O)c1ccc(Cl)cn1 (stereo not drawn) [VII-21, N-(2-carbamoylcyclohexyl)-5-chloropyridine-2-carboxamide]	D (increased proliferation of hFDPCs equals to or larger than 8%)
COc1cc(OC)nc(OC)n1 [VII-14, 2,4,6-trimethoxypyrimidine]	B (increased proliferation of hFDPCs equals to or larger than 1% and less than 4%)
COCCN(CCCc1ccccc1)C(=O)NC(C)Cn1ccnc1 (stereo not drawn) [VII-31, 3-(1-imidazol-1-ylpropan-2-yl)-1-(2-methoxyethyl)-1-(3-phenylpropyl)urea]	A (increased proliferation of hFDPCs of less than 1%)
COC(=O)Cn1c(=O)[nH]c2ccccc2c1=O [V-4, methyl 2-(2,4-dioxo-1H-quinazolin-3-yl)acetate]	A (increased proliferation of hFDPCs of less than 1%)
CCN1C(=S)N(C)NC1(C)C [VII-1, 4-ethyl-2,5,5-trimethyl-1,2,4-triazolidine-3-thione]	D (increased proliferation of hFDPCs equals to or larger than 8%)
CC(=O)NC1CCN(Cc2ccccc2N(C)C)CC1 [VII-20, N-[1-[[2-(dimethylamino)phenyl]methyl]piperidin-4-yl]acetamide]	D (increased proliferation of hFDPCs equals to or larger than 8%)
CCNC(=O)NC1CN(Cc2ccccc2N(C)C)C[C@@H]1OC (stereo partly drawn) [VII-38, 1-[(4S)-1-[[2-(dimethylamino)phenyl]methyl]-4-methoxypyrrolidin-3-yl]-3-ethylurea]	D (increased proliferation of hFDPCs equals to or larger than 8%)
COc1ccc(CCCNC(=O)C(C)C)cc1 [II-6, N-[3-(4-methoxyphenyl)propyl]-2-methylpropanamide]	C (increased proliferation of hFDPCs equals to or larger than 4% and less than 8%)
O=C(CSc1nnc(SCC(=O)N2CCCC2)s1)N1CCCC1 [VII-35, 2-[[5-(2-oxo-2-pyrrolidin-1-ylethyl)sulfanyl-1,3,4-thiadiazol-2-yl]sulfanyl]-1-pyrrolidin-1-ylethanone]	C (increased proliferation of hFDPCs equals to or larger than 4% and less than 8%)
NC(=O)C1CCCc2ccccc2N1 (stereo not drawn) [VII-18, 2,3,4,5-tetrahydro-1H-1-benzazepine-2-carboxamide]	D (increased proliferation of hFDPCs equals to or larger than 8%)
CC1CNCCN1 (stereo not drawn) [VII-8, 2-methylpiperazine]	D (increased proliferation of hFDPCs equals to or larger than 8%)
Nn1c(SCC(=O)N2CCCCC2)nnc1-c1ccccc1 [I-2, 2-[(4-amino-5-phenyl-1,2,4-triazol-3-yl)sulfanyl]-1-piperidin-1-ylethanone]	B (increased proliferation of hFDPCs equals to or larger than 1% and less than 4%)
COc1ccc(C(=O)NC(C(=O)NC(C)Cn2ccnc2)C(C)C)cc1 (stereo not drawn) [III-5, N-[1-(1-imidazol-1-ylpropan-2-ylamino)-3-methyl-1-oxobutan-2-yl]-4-methoxybenzamide]	B (increased proliferation of hFDPCs equals to or larger than 1% and less than 4%)
CCC(=O)NC(C)c1ccccc1 (stereo not drawn) [II-4, N-(1-phenylethyl)propanamide]	C (increased proliferation of hFDPCs equals to or larger than 4% and less than 8%)
CN(C)CCCn1c(=O)[nH]c2ccccc2c1=O [V-2, 3-[3-(dimethylamino)propyl]-1H-quinazoline-2,4-dione]	A (increased proliferation of hFDPCs of less than 1%)
CN(C)c1ccccc1CN1CCN(C(=O)N2CCOCC2)CC1 [VII-23, [4-[[2-(dimethylamino)phenyl]methyl]piperazin-1-yl]-morpholin-4-ylmethanone]	D (increased proliferation of hFDPCs equals to or larger than 8%)
CCCNC(=O)CCNC(=O)C(C)Oc1ccc(OC)cc1 (stereo not drawn) [VII-25, 2-(4-methoxyphenoxy)-N-[3-oxo-3-(propylamino)propyl]propanamide]	B (increased proliferation of hFDPCs equals to or larger than 1% and less than 4%)
CC(=O)OC(Cn1ccnc1)c1ccccc1 (stereo not drawn) [VII-28, (2-imidazol-1-yl-1-phenylethyl) acetate]	A (increased proliferation of hFDPCs of less than 1%)
CCn1c(SCC(=O)N2CCCCCC2)nnc1-c1ccncc1 [I-5, 1-(azepan-1-yl)-2-[(4-ethyl-5-pyridin-4-yl-1,2,4-triazol-3-yl)sulfanyl]ethanone]	C (increased proliferation of hFDPCs equals to or larger than 4% and less than 8%)
COc1ccc(CN2CCN(C(=O)Cn3ccnc3)CC2)cc1 [VII-33, 2-imidazol-1-yl-1-[4-[(4-methoxyphenyl)methyl]piperazin-1-yl]ethanone]	C (increased proliferation of hFDPCs equals to or larger than 4% and less than 8%)
COc1ccccc1CN1CCNC(=O)C1CC(=O)N(C)C (stereo not drawn) [VII-22, 2-[1-[(2-methoxyphenyl)methyl]-3-oxopiperazin-2-yl]-N,N-dimethylacetamide]	D (increased proliferation of hFDPCs equals to or larger than 8%)
CC1=C(/C=C/C(C)=C/C=C/C(C)=C/CO)C(C)(C)CCC1 [Retinol, reference compound]	B (increased proliferation of hFDPCs equals to or larger than 1% and less than 4%)
